Measurements published in patent publication US9855249B2, “Isoxazole compounds and methods for the treatment of cystic fibrosis” (FLATLEY DISCOVERY LAB, LLC, priority 2014, dated 2018).

System: CFTR mediated chloride current in Primary CF airway epithelial cells
Experiment: Equivalent current assay in primary CF airway epithelial cells (NAUC)
Assay type: cell-based
Details: 24 h treatment, stimulated with forskolin and VX770, normalized to positive control 3 μM VX809
Experimental: Primary CF airway epithelial cells were obtained from the UNC Cystic Fibrosis Tissue Procurement and Cell Culture Core. The cells are grown at 37° C. in a Heracell 150i incubator using growth media (BEGM, Fischer). Cells were then transferred to differentiation media (ALI, UNC) for a minimum of 4 weeks on coated Costar snapwells. Two days before the Ussing assay the mucus on the apical surface of the cells was aspirated after incubating with 200 μL of differentiation Media for at least thirty (30) minutes. One day before the Ussing assay test compounds were added to the basolateral surface of the cells at various test concentrations dissolved in DMSO. Duplicate wells were prepared giving a n=3 or n=4 protocol.
Cells were treated for 24 hours with various combinations and concentrations of the test articles, reference standard (3 μM VX809, positive control). Compounds stock solutions were prepared in DMSO and diluted 1/1000 into ALI media to their final assay concentration. Cells were treated with combination solutions (2 mL of each dilution) and incubated at 37° C. for 24 h.
For the equivalent current assay, cells on four Transwell (24-well) plates were treated. Each Transwell plate was filled with 200 μl of HBS on the apical surface and 2 ml on the basolateral surface. Plates were placed horizontally in a heated mount at 37° C., and equilibrated for several minutes. Resting current was measured for 15 min and then blocked by the apical addition of 5 μM benzamil. After 20 min, 10 μM forskolin and 1 μM VX770 were added to both the apical and basolateral side to stimulate CFTR. An increase in chloride current is seen as an upward deflection of the trace. After another 30 min, CFTR-172 (a CFTR inhibitor, 2 μM) and/or bumetanide (20 μM) was added to block CFTR mediated chloride current.
The raw data, current vs. time for the Ussing chamber (sampling interval: 10 s) and voltage vs. time and resistance vs. time for the equivalent current assay (sampling interval: 5 minutes) were transferred to Excel (Microsoft Office Professional, version 14.0.7106.5003) for analysis. CFTR specific current was measured as the average amplitude of the increase in current elicited upon addition forskolin and ending upon addition of the CFTR channel specific blocker CFTR-172. This average is equivalent to the sum of the average forskolin activated and the average VX770-potentiated currents. The average current measured in vehicle (0.1% DMSO) treated cells, Iv, was subtracted from the current for the test article, ITA, or from the corrector reference standard VX809 (3 μM ISTD. For replicate measurements, the average vehicle subtracted response for the test article, was normalized to the average vehicle subtracted […] response of the reference corrector VX809 (3 μM). INSC=(ITA−IV)(ave)/(ISTD−IV)(ave) (Equation 1)
A second endpoint, for the equivalent current assay, evaluated was NAUC, the normalized area under the curve (AUC) measuring the response after addition of forskolin and VX770 to the time point right before the addition of the CFTR inhibitor. The AUC is effectively the average response multiplied by the duration of the response. The AUC of the test article, AUCTA was then corrected by subtracting the average vehicle response, AUCV,ave over the same time range, and normalized as for the inhibitor-sensitive current to the difference of the corrector reference standard VX809 (3 μM VX809r,ave and the vehicle response: NAUCTA=[AUCTA−AUCV,ave]/[AUCVx809r,ave−AUCV,ave](Equation 2).
The normalized value for DMSO is 0.0 and for VX-809 alone is 1.0. Combinations of compounds with VX-809 that give normalized values greater than 1.0 show activity in the combination assay. A value of 2 means the test compound doubles the effect to VX-809 alone.
Experiments were run with a minimum of n=4 replicates per concentration. […]

Structure (SMILES)	NAUC (normalized area under the curve), Test Conc 3 uM	NAUC (normalized area under the curve), Test Conc 10 uM
O=C(NC1CCCC1)c1cc(-c2ccc(F)cc2)on1 [Example 29]	++ (NAUC “++” refers to an observed NAUC 170-140% of positive control)	++ (NAUC “++” refers to an observed NAUC 170-140% of positive control)
O=C(NCC1CCCCC1)c1cc(-c2ccc(F)cc2)on1 [Example 33]	+ (NAUC “+” refers to an observed NAUC <140% of positive control)	+ (NAUC “+” refers to an observed NAUC <140% of positive control)
O=C(NCCCCC(=O)N1CCC1)c1cc(-c2ccc(F)cc2)no1 [Example 53, N-(5-(azetidin-1-yl)-5-oxopentyl)-3-(4-fluorophenyl)isoxazole-5-carboxamide]	++ (NAUC “++” refers to an observed NAUC 170-140% of positive control)	+++ (NAUC “+++” refers to an observed NAUC >170% of positive control)
CN1CCN(C(=O)CCNC(=O)c2cc(-c3ccccc3)on2)CC1 [Example 48]	+++ (NAUC “+++” refers to an observed NAUC >170% of positive control)	+++ (NAUC “+++” refers to an observed NAUC >170% of positive control)
O=C(NCCC(=O)N1CCOCC1)c1cc(-c2ccc(F)cc2)on1 [Example 10]	++ (NAUC “++” refers to an observed NAUC 170-140% of positive control)	+++ (NAUC “+++” refers to an observed NAUC >170% of positive control)
CC(C)OCCNC(=O)c1cc(-c2ccc(F)cc2)on1 [Example 20]	+ (NAUC “+” refers to an observed NAUC <140% of positive control)	++ (NAUC “++” refers to an observed NAUC 170-140% of positive control)
CN1CCN(C(=O)CCCNC(=O)c2cc(-c3ccc(F)cc3)on2)CC1 [Example 14, 5-(4-fluorophenyl)-N-(4-(4-methylpiperazin-1-yl)-4-oxobutyl)isoxazole-3-carboxamide]	+++ (NAUC “+++” refers to an observed NAUC >170% of positive control)	+++ (NAUC “+++” refers to an observed NAUC >170% of positive control)
O=C(NCC1CC1)c1cc(-c2ccc(F)cc2)on1 [Example 36, N-(cyclopropylmethyl)-5-(4-fluorophenyl)isoxazole-3-carboxamide]	++ (NAUC “++” refers to an observed NAUC 170-140% of positive control)	+++ (NAUC “+++” refers to an observed NAUC >170% of positive control)
CC(C)Oc1ccc(CNC(=O)c2cc(-c3ccc(F)cc3)on2)cc1 [Example 19]	+ (NAUC “+” refers to an observed NAUC <140% of positive control)	+ (NAUC “+” refers to an observed NAUC <140% of positive control)
CN1CCN(C(=O)CCNC(=O)c2cc(-c3ccccc3)no2)CC1 [Example 63]	+++ (NAUC “+++” refers to an observed NAUC >170% of positive control)	+++ (NAUC “+++” refers to an observed NAUC >170% of positive control)
O=C(NCCC(=O)N1CCCC1)c1cc(-c2ccc(F)cc2)on1 [Example 2]	++ (NAUC “++” refers to an observed NAUC 170-140% of positive control)	+++ (NAUC “+++” refers to an observed NAUC >170% of positive control)
CCN(CC)C(=O)CCNC(=O)c1cc(-c2ccc(F)cc2)on1 [Example 3]	++ (NAUC “++” refers to an observed NAUC 170-140% of positive control)	+++ (NAUC “+++” refers to an observed NAUC >170% of positive control)
CN1CCN(C(=O)CCCCNC(=O)c2cc(-c3ccc(F)cc3)no2)CC1 [Example 54, 3-(4-fluorophenyl)-N-(5-(4-methylpiperazin-1-yl)-5-oxopentyl)isoxazole-5-carboxamide]	++ (NAUC “++” refers to an observed NAUC 170-140% of positive control)	+++ (NAUC “+++” refers to an observed NAUC >170% of positive control)
O=C(NCCC(=O)N1CCC1)c1cc(-c2ccc(F)cc2)no1 [Example 51, N-(3-(azetidin-1-yl)-3-oxopropyl)-3-(4-fluorophenyl)isoxazole-5-carboxamide]	++ (NAUC “++” refers to an observed NAUC 170-140% of positive control)	+++ (NAUC “+++” refers to an observed NAUC >170% of positive control)
O=C(NCCN1CCOCC1)c1cc(-c2ccc(F)cc2)on1 [Example 37, 5-(4-fluorophenyl)-N-(2-morpholinoethyl)isoxazole-3-carboxamide]	+ (NAUC “+” refers to an observed NAUC <140% of positive control)	++ (NAUC “++” refers to an observed NAUC 170-140% of positive control)
CN1CCN(C(=O)CCNC(=O)c2cc(-c3ccc(F)cc3)no2)CC1 [Example 52, 3-(4-fluorophenyl)-N-(3-(4-methylpiperazin-1-yl)-3-oxopropyl)isoxazole-5-carboxamide]	++ (NAUC “++” refers to an observed NAUC 170-140% of positive control)	+++ (NAUC “+++” refers to an observed NAUC >170% of positive control)
CC(C)CNC(=O)c1cc(-c2ccc(F)cc2)on1 [Example 22]	+ (NAUC “+” refers to an observed NAUC <140% of positive control)	++ (NAUC “++” refers to an observed NAUC 170-140% of positive control)
O=C(NC[C@@H]1CCCO1)c1cc(-c2ccc(F)cc2)on1 [Example 21]	+ (NAUC “+” refers to an observed NAUC <140% of positive control)	++ (NAUC “++” refers to an observed NAUC 170-140% of positive control)
CN1CCN(C(=O)CCCCNC(=O)c2cc(-c3ccc(F)cc3)on2)CC1 [Example 15, 5-(4-fluorophenyl)-N-(5-(4-methylpiperazin-1-yl)-5-oxopentyl)isoxazole-3-carboxamide]	+++ (NAUC “+++” refers to an observed NAUC >170% of positive control)	+++ (NAUC “+++” refers to an observed NAUC >170% of positive control)
